Series [1] addresses T1, IKACh (Kir3.1 and Kir3.4 protein channels) (Homo sapiens, UniProt P48544+P48549).
T1 construct: expressed in transfected cells; host or cells: HEK 293 (human embryonic kidney cells)
T1 sequence (P48549 1-501): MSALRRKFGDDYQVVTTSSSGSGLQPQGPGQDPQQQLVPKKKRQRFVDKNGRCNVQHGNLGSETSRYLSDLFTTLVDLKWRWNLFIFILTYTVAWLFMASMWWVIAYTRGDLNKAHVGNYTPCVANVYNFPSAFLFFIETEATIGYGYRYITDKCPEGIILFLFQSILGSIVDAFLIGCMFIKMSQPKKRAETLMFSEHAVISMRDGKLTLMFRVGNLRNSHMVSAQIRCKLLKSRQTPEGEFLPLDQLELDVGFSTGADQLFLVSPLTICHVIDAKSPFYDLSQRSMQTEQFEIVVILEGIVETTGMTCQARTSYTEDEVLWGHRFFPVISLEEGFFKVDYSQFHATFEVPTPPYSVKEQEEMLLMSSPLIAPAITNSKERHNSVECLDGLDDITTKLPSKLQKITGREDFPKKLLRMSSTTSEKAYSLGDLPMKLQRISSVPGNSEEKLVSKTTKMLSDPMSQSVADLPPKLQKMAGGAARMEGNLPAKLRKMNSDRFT
T1 sequence (P48544 1-419): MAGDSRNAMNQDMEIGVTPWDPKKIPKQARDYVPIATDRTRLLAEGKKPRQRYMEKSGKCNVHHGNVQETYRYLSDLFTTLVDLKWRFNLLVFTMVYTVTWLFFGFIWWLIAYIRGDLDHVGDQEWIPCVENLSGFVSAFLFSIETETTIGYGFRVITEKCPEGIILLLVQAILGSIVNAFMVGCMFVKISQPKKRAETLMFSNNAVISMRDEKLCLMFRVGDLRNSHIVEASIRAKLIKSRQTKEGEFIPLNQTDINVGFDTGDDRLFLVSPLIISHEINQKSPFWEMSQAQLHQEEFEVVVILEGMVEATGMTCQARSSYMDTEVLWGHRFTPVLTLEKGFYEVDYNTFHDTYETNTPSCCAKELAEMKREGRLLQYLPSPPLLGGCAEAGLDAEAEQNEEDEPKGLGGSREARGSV
Description: Patch clamp block of IKACh current in transfected HEK 293 cells. The settings on record: for percentage block of IKACh current (outward component): 1 μM drug, HEK 293 cells transfected with Kir3.1/Kir3.4, barium sensitive current, 5 minute superfusion; for percentage block of IKACh current (FIG. 5, Compound A experiments): same manner and cell lines, concentration not given. It counts as cell-based. As for the experimental part:
FIG. 1: In patch clamp experiments, IKACh was measured in human embryonic kidney cells (HEK 293) transfected with IKACh.
The boxed area is the physiologically important outward component of the IKACh current. A magnification is shown. […] The traces are the barium sensitive currents.
(In general: The patch-clamp technique gives a direct electrical read-out from membranes.)

In series [2] the target is IKr (hERG protein channel) (Homo sapiens, UniProt Q12809). The settings on record: 5 min. As for the experimental part:
FIG. 2: IKr current was measured in Chinese hamster ovary cells (CHO) expressing the current.
The arrow denotes the tail current. Tail current is elicited by 3 second step voltage drop from +20 mV to −40 mV. The gray trace is the remaining current after total current block with E4031.
We used the conventional patch clamp method and human embryonic kidney cells transfected with Kir3.1 and Kir3.4 protein channels responsible for IKACh, or Chinese hamster ovary cells transfected with the hERG protein channel responsible for IKr. […] In order to elicit IKACh, the cells were subjected to a voltage protocol consisting of a 2 second ramp from −130 mV to 50 mV, from a holding potential of −40 mV. IKr tail current was elicited by a 3 second voltage drop step from 20 mV to −40 mV. The drugs were superfused over a 5 minute period into the chambers that hold the cells.

[3] abbreviates: Compound A vs racemic chloroquine.

The values below come from patent publication US20170258781A1, “ATRIAL SPECIFIC ANTIARRHYTHMICS FOR USE IN TREATING OR PREVENTING ATRIAL FIBRILLATION” (Tufts Medical Center, Inc., priority 2014, published 2017).

IKr (hERG protein channel), sequence (Q12809 whole entry): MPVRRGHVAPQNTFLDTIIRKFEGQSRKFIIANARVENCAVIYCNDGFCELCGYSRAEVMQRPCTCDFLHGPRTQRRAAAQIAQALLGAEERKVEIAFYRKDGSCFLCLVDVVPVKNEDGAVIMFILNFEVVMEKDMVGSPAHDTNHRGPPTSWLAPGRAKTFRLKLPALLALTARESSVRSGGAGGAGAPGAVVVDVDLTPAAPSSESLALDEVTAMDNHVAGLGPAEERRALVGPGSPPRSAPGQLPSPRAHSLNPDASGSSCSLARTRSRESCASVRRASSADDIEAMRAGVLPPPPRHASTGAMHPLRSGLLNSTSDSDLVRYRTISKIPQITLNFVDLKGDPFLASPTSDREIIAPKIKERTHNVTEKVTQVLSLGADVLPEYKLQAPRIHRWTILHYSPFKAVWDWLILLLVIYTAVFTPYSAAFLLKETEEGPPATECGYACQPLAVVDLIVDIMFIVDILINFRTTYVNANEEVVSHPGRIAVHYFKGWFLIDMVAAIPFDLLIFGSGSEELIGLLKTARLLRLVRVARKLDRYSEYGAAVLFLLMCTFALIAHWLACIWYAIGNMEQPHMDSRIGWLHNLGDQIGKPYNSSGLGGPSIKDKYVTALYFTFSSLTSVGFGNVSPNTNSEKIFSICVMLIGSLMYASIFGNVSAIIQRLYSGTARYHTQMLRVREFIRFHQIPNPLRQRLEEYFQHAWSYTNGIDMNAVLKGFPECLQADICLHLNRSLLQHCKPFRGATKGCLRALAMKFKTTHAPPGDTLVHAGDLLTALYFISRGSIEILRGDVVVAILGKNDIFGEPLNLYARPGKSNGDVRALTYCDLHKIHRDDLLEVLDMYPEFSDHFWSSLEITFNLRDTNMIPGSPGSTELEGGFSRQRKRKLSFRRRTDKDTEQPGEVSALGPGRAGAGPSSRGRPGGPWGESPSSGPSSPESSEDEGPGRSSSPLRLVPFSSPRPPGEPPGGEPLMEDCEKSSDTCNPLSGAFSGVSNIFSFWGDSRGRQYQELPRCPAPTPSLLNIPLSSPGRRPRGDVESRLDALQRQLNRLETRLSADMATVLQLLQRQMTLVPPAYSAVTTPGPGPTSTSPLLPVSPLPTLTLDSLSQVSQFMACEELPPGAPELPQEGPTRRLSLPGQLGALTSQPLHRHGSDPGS

Take `CCN(CC)CCC[C@@H](C)Nc1ccnc2cc(Cl)ccc12` [(R)-chloroquine, reference compound]: the entries for the “percentage block of IKACh current (outward component)” value in series [1] and in series [1] (listed as distomer (R)) were “less than 13%” and 14%±9, respectively.
`CCN(CC)CCC[C@H](C)Nc1ccnc2cc(Cl)ccc12` [(S)-chloroquine]: the “percentage block of IKACh current (outward component)” value was “more than 83%” in series [1] and 83%±2 in series [1] (listed as eutomer (S)).
Take `CCN(CC)CCC[C@H](Cc1ccccc1)Nc1ccnc2cc(Cl)ccc12` [Compound A]: the “percentage block of IKr current (FIG. 5, Compound A experiments)” value in series [2] is 75%±5.7. For the same molecule, in series [1] (setting [3]), the “IKACh block relative to chloroquine, in words” value is recorded as “significantly better blocker of IKACh” and the “percentage block of IKACh current (FIG. 5, Compound A experiments)” value is listed as 110%±2.5.
“chloroquine [racemic chloroquine, reference compound]”: the “percentage block of IKACh current (FIG. 5, Compound A experiments)” value in series [1] (setting [3]) is on record as 52%±11.
